Experimental data as given in US20260191818A1 (University of South Carolina, priority 2022, published 2026).

Columns and labels:
Format in all cases: in vivo, CD2F1 mice
[1] = tested on: succinate dehydrogenase (SDH) activity; experiment: Myofiber metabolic phenotype, succinate dehydrogenase (SDH) staining of TA cryosections; details: C26+5FU+Quer vs C26+5FU
Protocol: To assess skeletal muscle myofiber metabolic phenotype succinate dehydrogenase (SDH) activity was measured. SDH is an enzyme bound to the inner mitochondrial membrane and SDH activity is higher in type 1 fibers. See, Zogby, A. M., et al., Skeletal muscle fiber-type specific succinate dehydrogenase activity in cerebral palsy. Muscle Nerve, 2017. 55(1): p. 122-124. TA tissue cryosections were taken out of the -80° C. and air dried on the laboratory bench and then incubated in an SDH staining solution containing 0.5 mg/ml nitroblue tetrazolium and (Sigma, Cat #: N5514) and 50 mM sodium succinate (Sigma, Cat #: S2378) in PBS for 30 min at 37° C. See, […]., et al., Eccentric contraction-induced myofiber growth in tumor-bearing mice. J Appl Physiol (1985), 2016. 120(1): p. 29-37. Slides were then washed in distilled water 3×1 min before mounting with warmed glycerol mounting media and cover slipped. Images of SDH stains were taken at 4×, 20×, and 40× using a Keyence BZX800 microscope. […] Images were inverted thus higher values corresponded with higher SDH activity.

[2] = tested on: soleus muscle mitochondria; experiment: Transmission electron microscopy of soleus muscle, mitochondrial number and size; details: C26+5FU+Quer vs C26+5FU
Protocol: Mitochondrial number and size were assessed in the soleus muscle using transmission electron microscopy (TEM). Skeletal muscle was prepared for TEM as previously described. See, VanderVeen, B. N., et al., 5-Fluorouracil disrupts skeletal muscle immune cells and impairs skeletal muscle repair and remodeling. J Appl Physiol (1985), 2022. 133(4): p. 834-849. The soleus was excised and initially fixed in 2.5% EM-grade glutaraldehyde followed by a secondary fixation in 1% osmium tetroxide and 1.5% K+ ferricyanide. After dehydration with increasing concentrations of ethanol, the samples were transferred to acetonitrile and embedded in Polybed 812. Ultrathin (~70 nm) sections were cut with a Leica Reichert Ultracut R ultramicrotome (Leica Microsystems GmbH, Wetzlar, Germany), collected on copper grids and stained with uranyl acetate and lead citrate. A JEOL 1400+ transmission electron microscope (JEOL USA, Peabody, MA) was used to view sections, and digital images were obtained with an Advanced Microscopy Techniques XR 81 Camera (Advanced Microscopy Techniques, Woburn, MA). Tissues were searched for intact and aligned sarcomeres by an investigator blinded to the experimental groups. […] Mitochondrial size was calculated by circling discernible mitochondria with ImageJ within the F.O.V. and averaged across the multiple images within a single mouse.

[3] = tested on: mitochondrial complexes I-V, VDAC, cytochrome c; experiment: Western blot of rectus femoris, mitochondrial content proteins; details: C26+5FU+Quer vs C26+5FU; p=0.01
Protocol: Protein isolation and western blotting was completed similar to what has been previously described. See, Sougiannis, A. T., et al., Impact of weight loss and partial weight regain on immune cell and inflammatory markers in adipose tissue in male mice. J Appl Physiol (1985), 2020. 129(4): p. 909-919. The rectus femoris (RF) was teased from the other quadriceps muscles, cut in half (proximal/distal), snap frozen in liquid nitrogen, and stored at −80° C. The distal RF was homogenized in Mueller Buffer (50 mM Hepes, 0.1% Triton-x, 4 mM EGTA, 10 mM EDTA, 15 mM Na4P207, 100 mM β-glycerophosphate, 25 mM NaF, and 5 mM NaVO4, with protease inhibitor cocktail) using a bead homogenizer at 4° C. Samples were centrifuged and the supernatant was collected and diluted with a diluent buffer (50% Glycerol, 50 mM Na4P2O7, 2.5 mM EGTA, and 1 mM β-mercaptoethanol with protease inhibitor cocktail). Protein concentrations were determined using the Bradford standard protein assay and protein integrity was confirmed with SDS-PAGE and amido black staining. Between 10-50 μg of muscle protein homogenate was separated via SDS-PAGE and transferred to a PVDF membrane. Membranes were stained with Ponceau Red to confirm even loading and transfer efficiency. […] Images were then scanned, and relative protein expression was determined with ImageJ. […]

IL-6 = experiment: Plasma interleukin-6 ELISA; details: C26+5FU+Quer vs C26+5FU
Protocol: Blood was collected retro orbitally prior to euthanasia while the mice were anesthetized. Whole blood was collected and put in an EDTA-coated tubes and store on ice prior to centrifugation (3,000 g at 4° C. for 10 min) for plasma collection. A commercially available IL-6 (SEQ ID NO: 9) enzyme-linked immunosorbent assay (ELISA) kit was obtained from BioLegend (San Diego, CA, USA). Briefly, a Costar clear 96-well plate (Corning, NY, USA) was coated with IL-6 (SEQ ID NO: 9) capture antibody and allowed to incubate overnight. The plate was then blocked with assay diluent buffer, and IL-6 (SEQ ID NO: 9) standards and plasma samples were added to the plate. Wells were then washed and detection antibody was incubated in each well for 1 h. The wells were again washed and then incubated with avidin horseradish peroxidase reagent. After several washes, 3,3′,5,5′-tetramethylbenzidine substrate was added, and the reaction was developed for 20 min. The reaction was stopped with sulfuric acid, and absorbance was measured.

[4] = tested on: STAT3, P65/NFκβ, P38/MAPK; experiment: Western blot of rectus femoris, inflammatory signaling proteins; details: C26+5FU+Quer vs C26+5FU
Protocol: Protein isolation and western blotting was completed similar to what has been previously described. See, Sougiannis, A. T., et al., Impact of weight loss and partial weight regain on immune cell and inflammatory markers in adipose tissue in male mice. J Appl Physiol (1985), 2020. 129(4): p. 909-919. The rectus femoris (RF) was teased from the other quadriceps muscles, cut in half (proximal/distal), snap frozen in liquid nitrogen, and stored at −80° C. The distal RF was homogenized in Mueller Buffer (50 mM Hepes, 0.1% Triton-x, 4 mM EGTA, 10 mM EDTA, 15 mM Na4P207, 100 mM β-glycerophosphate, 25 mM NaF, and 5 mM NaVO4, with protease inhibitor cocktail) using a bead homogenizer at 4° C. Samples were centrifuged and the supernatant was collected and diluted with a diluent buffer (50% Glycerol, 50 mM Na4P2O7, 2.5 mM EGTA, and 1 mM β-mercaptoethanol with protease inhibitor cocktail). Protein concentrations were determined using the Bradford standard protein assay and protein integrity was confirmed with SDS-PAGE and amido black staining. Between 10-50 μg of muscle protein homogenate was separated via SDS-PAGE and transferred to a PVDF membrane. Membranes were stained with Ponceau Red to confirm even loading and transfer efficiency. Membranes were then washed with tris buffered saline with 0.1% Tween (TBST) before blocking for 1 h at room temp with 5% milk TBST. Membranes were then incubated in primary anti-body (Table 1, see FIG. 8) overnight at 4° C. under gentle agitation. Membranes were then washed 3×5 min and incubated with the appropriate (anti-mouse or rabbit) HRP-linked secondary in 5% milk TBST for 1 h at room temperature. After a final 3×5 min wash membranes were incubated in chemiluminescent HRP substrate before visualization with a Syngene G:box. Images were then scanned, and relative protein expression was determined with ImageJ. Investigator was blinded to sample loading scheme and images were cropped after analysis for representation. All samples (full Ns) were run together for each protein. Dotted lines indicate where gels were cropped.

O=c1c(O)c(-c2ccc(O)c(O)c2)oc2cc(O)cc(O)c12 [quercetin, 3,4,5,7-pentahydroxylflavone]
CSA across glycolytic, mixed, and oxidative fibers according to SDH activity [1]: increase
mCSA and SDH across the spectrum of fibers analyzed [1]: increased
greater number of mitochondria ([2]; soleus TEM per F.O.V., p=0.04): 89.6%
greater mitochondrial size ([2]; soleus TEM, p>0.01 as printed): 45.3%
change in expression of cytochrome c [3]: 48.9%
plasma IL-6 (IL-6): did not appear that quercetin decreased
change in p/tP65 ([4]; increased, p=0.03): 41.9%
change in phospho:total P38 ([4]; p=0.19): −30.0%
change in phospho:total (p/t) STAT3 ([4]; p=0.36): 33.2%
